“Also recorded” adds a separate entry of the source.
Legend:
human THP-1 macrophages [1] = experiment: In vitro phagocytosis assay: opsonized human RBCs engulfed by peptide-treated THP-1 macrophages; assay type: cell-based
Experimental: (§1) In vitro phagocytosis assay. Fresh human RBCs were washed twice with 50 mM EDTA (Thermo Fischer) in PBS (Gibco) then twice with 5% FBS in PBS. RBCs were opsonized with 20 μg/mL rabbit anti-human RBC antibody (Rockland) in 5% FBS for 1 hour at RT with shaking. For CD47 blocked RBCs, 5 μg/mL of mouse anti-human CD47 (B6H12; BD Biosciences) were added. Thereafter, RBCs were washed with PBS three times and stained with PKH26 dye (1:800 dilution in PBS; Sigma) for 1 hour at RT with shaking in the dark. RBCs were washed and resuspended in PBS.
(§2) THP-1 monocytes were PMA differentiated in RPMI for 48 hours. Macrophages were then washed with RPMI media three times. For SIRPα blocked THP-1 macrophages, 20 nM, 1 μM or 50 μM of the nano—Self peptides were incubated with the THP-1 macrophages for 1 hour at 37 ° C., 5% CO2 and 95% humidity. Those THP-Is were then washed with RPMI three times.
(§3) CO2 and 95% humidity. Macrophages were then washed with RPMI three times. Adherent and uninternalized RBCs were lysed with water for 30 seconds followed by immediate replacement with RPMI media. In order to distinguish remaining adherent RBCs from internalized RBCs, opsonized RBCs were stained with AlexaFluor 647 donkey anti-rabbit (binds to rabbit polyclonal opsonin on RBC; Invitrogen) IgG (1:1000) while unopsonized, CD47 blocked RBCs were stained with AlexaFluor 647 donkey anti-mouse (binds to mouse monoclonal anti-CD47 on RBCs; Invitrogen) IgG (1:1000) for 30 minutes. After washing, macrophages were fixed with 4% formaldehyde for 15 minutes at RT, washed with PBS, stained with 1 μg/mL Hoechst 33342, and then washed with PBS again. Fluorescence imaging was performed as described elsewhere herein and quantification was done using ImageJ. At least 200 cells were analyzed and experiments were repeated at least three times.

[2] = system: human macrophages (opsonized K562 cancer cells); experiment: Phagocytosis of opsonized K562 erythroleukemia cells by human macrophages; assay type: cell-based
Experimental: as §1, §2, §3
The anti-RBC successfully opsonized and triggered phagocytosis of K562 cells by macrophages (FIGS. 2A, 2F and 2E). […] Interaction of the nS peptides with K562 cells is likely minimal due to the relative lack of SIRPα expression. […] For both opsonized RBCs and opsonized K562s (FIGS. 2D, 2F), the hyperphagocytosis that is achieved with soluble F- and V-nS peptides matches the recently measured increases for disruption of both (i) the trans interactions between CD47 on a target and macrophage SIRPα and also, importantly, (ii) the cis interactions between CD47 and SIRPα on the same macrophage (FIG. 2G-left). Expression profiling of macrophages confirms these cells generally express CD47 at roughly similar levels to other cell types (FIG. 15). […] A preliminary conclusion is that nS-FF and the other substituted peptides, which were designed to bind SIRPα, inhibit both the cis and trans interactions between SIRPα and CD47 ([…]).

SIRPα = target: T1, SIRPα (Homo sapiens, UniProt P78324); experiment: CD47-Fc Inhibition Assay on THP-1 macrophages; assay type: binding; conditions: 1 μM or 50 μM peptide, 2 μg/mL CD47-Fc, anti-Fc fluorescence
T1 construct: THP-1 monocytes were PMA differentiated in RPMI for 48 h; endogenous in cells; host or cells: PMA-differentiated THP-1 macrophages
Experimental: CD47-Fc Inhibition Assay. THP-1 monocytes were PMA differentiated in RPMI for 48 h. The macrophages were washed with RPMI media and then incubated with 1 μM or 50 μM of nano- Self peptides for 1 h at 37° C., 5% CO2, and 95% humidity. After washing, the macrophages were incubated with Human Trustain FcX Fc receptor blocking solution (Biolegend) for 10 min at RT and then incubated with 2 μg/mL CD47-Fc fusion protein (ACRO Biosystems) for 1 h at 37° C., 5% CO2, and 95% humidity. As a negative control, B6H12 was pre-mixed with CD47-Fc at 4° C. on a rotator for 1 h. The macrophages were then washed and incubated with 0.5 μg/mL goat anti-human IgG Fc DyLight 488 (Thermo Fischer) for 1 h at 37° C., 5% CO2, and 95% humidity. Finally, the macrophages were washed, fixed, Hoechst 33342 stained, and imaged as described above.
To determine whether the nS peptides bind to SIRPα, nS-FF and nS-F4 were used as soluble competitive inhibitors of saturable CD47-Fc fusion protein binding to macrophages (FIG. 20). Addition of multivalent nS peptides was followed by Fc-receptor blockade to minimize Fc-driven binding of construct. Afterwards, CD47-Fc was added and then finally anti-Fc fluorescence imaging was performed (FIG. 20, left).

THP-1 macrophages = experiment: Peptide inhibition assay (competition with FAM-labeled nS-F on THP-1 macrophages); assay type: binding, human; conditions: pre-treatment with unlabeled peptide
Experimental: Peptide inhibition assay. THP-1 monocytes were PMA differentiated in RPMI for 48 hours. […] To measure background internalization of the FAM-labeled peptides, nS-X-FAM was used. To determine the efficacy of the bivalent peptides to inhibit SIRPα binding, nS-X was used. Excess peptides were washed off with PBS and cells were fixed with 4% formaldehyde for 15 minutes at RT, washed with PBS, stained with 1 μg/mL Hoechst 33342, and then washed with PBS again. Fluorescence imaging was performed as described elsewhere herein and quantification was done using ImageJ.

[3] = system: mouse J774A.1 macrophages; experiment: In vitro phagocytosis assay: opsonized human RBCs engulfed by mouse J774A.1 macrophages; assay type: cell-based
Experimental: as §3, with “In vitro phagocytosis assay. […] For CD47 blocked RBCs, 5 μg/mL of mouse anti-human CD47 (B6H12; BD Biosciences) were added. Thereafter, RBCs were washed with PBS three times and stained with PKH26 dye (1:800 dilution in PBS; Sigma) for 1 hour at RT with shaking in the dark. RBCs were washed and resuspended in PBS. J774A.1 macrophages were plated for 24 hours in RPMI. For SIRPα blocked J774A.1 macrophages, the same peptide blocking procedure as described elsewhere herein was used with the addition of a positive control using 5 μg/mL rat anti-mouse SIRPα ([…]; BD Biosciences). […] CO2” for “CO2”

[4] = system: mouse bone marrow derived macrophages (BMDMs); experiment: Phagocytosis of anti-TYRP1 opsonized B16F10 melanoma cells by mouse bone marrow derived macrophages; assay type: cell-based; conditions: 50 μM peptide
Experimental: B16F10 cells: Bone marrow cells were isolated from femurs and tibias of healthy C57BL6/J mice (The Jackson Laboratory) and cultured in 10-cm petri dishes containing IMDM (Gibco) supplemented with 10% v/v FBS, 1% v/v penicillin/streptomycin, and 1:10,000 macrophage colony stimulating factor cytokine (M-CSF; Biolegend) for 7 days at 37° C., 5% CO2 and 95% humidity. All animal experiments were performed according to protocols approved by the University of Pennsylvania's IACUC (protocol #805977 and #804455). The resulting mouse bone marrow derived macrophages (BMDMs) were washed with PBS containing Ca2^+/Mg2^+ (Gibco) then detached with 0.25% trypsin-EDTA (Gibco) and re-plated in 6-well tissue culture plates using IMDM+M-CSF for 24 hours.
Mouse melanoma B16F10 cells were washed with PBS containing Ca2-/Mg2- and then trypsinized with 0.05% trypsin-EDTA. After washing twice with PBS, the cells were labeled with 1:10,000 CFDA—SE (Thermo Fisher) in PBS for 10 minutes. B16F10 cells were opsonized with 10 μg/mL anti-TYRP1 (TA99; Bio X Cell) in PBS for 2 hours at 4° C.with occasional inverting. For CD47 blocked B16F10 cells, 5 μg/mL of […] were added. During the incubation time, the BMDMs were washed with media then stained with 1:2,000 CellTracker Deep Red (Thermo Fisher) in PBS with Ca2^+/Mg2^+ for 10 min. After washing, 50 μM of the nano—Self peptides were incubated with the BMDMs for 1 hour at 37° C., 5% CO2 and 95% humidity. Finally, BMDMs were washed twice with PBS and then twice with serum-free IMDM.
Without removing the supernatant, the opsonized melanoma cells were added to the labeled BMDMs at a ratio of 2:1 for 2 hours at 37° C., 5% CO2 and 95% humidity. During the last 15 minutes of the assay, the cells were Hoechst stained. The wells were washed with serum free IMDM then fixed with 4% formaldehyde for 15 minutes at RT, and PBS washed. Fluorescence imaging was performed using an Olympus IX71 with a digital EMCCD camera (Cascade 512B) and a 40×/0.6 NA objective. Quantification was done with ImageJ (NIH). At least 200 cells were analyzed and two-tailed student's t-test was used to determine statistical significance.

human THP-1 macrophages [5] = experiment: Residual adhesion of opsonized RBCs to macrophages; assay type: cell-based; conditions: 50 μM peptide
Excerpt: To measure the residual adhesion of RBCs and distinguish it from internalization by macrophages, the engulfment assay with human RBCs used a secondary antibody against the opsonizing IgG, which allowed us to clearly see RBCs in contact with macrophages that are not internalized (FIG. 29C). The cells are also firmly attached to the macrophages because the culture dishes were rinsed after fixation and secondary antibody labeling. […] All of the RBCs in these samples are equally opsonized with IgG that binds Fc-receptors (FcR's) on macrophages, and so differences in measured adhesion implicate differences in the CD47—SIRPα interaction.

Row | Substance | effect on phagocytosis of opsonized RBCs (words) (human THP-1 macrophages [1]; 20 nM peptide) | level of inhibition of CD47-Fc binding (SIRPα) | inhibition of monovalent nS-F-FAM binding to macrophages (THP-1 macrophages) | effect on phagocytosis of opsonized RBCs (words) (human THP-1 macrophages [1]; saturating / 50 μM peptide) | effect on phagocytosis of opsonized WT and SIRPα KO B16 cells [4] | other results
1 | ((VTELFREG-PEG5)2-K)2-K [nS-F4] | more potent in enhancing phagocytosis | as inhibitory as anti-CD47 | more potent in inhibiting monovalent nS-F-fluor association with macrophages than bivalent nS-FF | – | – | increase of phagocytosis relative to opsonized and CD47 blocked K562 cells ([2]; saturating peptide): nearly doubled; also recorded: about two-fold; macrophages engulfing opsonized K562 cells at saturation ([2]; saturation): ~40%
2 | (LETVEGTR-PEG5)2-K (LETVEGTRKRTGEVTEL; bivalent, PEG5 linkers, lysine core; nS-XX; (8)..(9) 5x PEG linker between residues; (9)..(10) 5x PEG linker between residues) [bivalent scrambled control] | – | 0 | – | unaffected; also recorded: do not affect baseline engulfment of opsonized RBCs; also recorded: do not have effects on phagocytosis | – | effect on phagocytosis of opsonized K562 cells [2]: unaffected; also recorded: only opsonization effect observed
3 | (VTELVREG-PEG5)2-K (VTELVREGKGERVLETV; bivalent, PEG5 linkers, lysine core; nS-VV; (8)..(9) 5x PEG linker between residues; (9)..(10) 5x PEG linker between residues) [bivalent nS-V] | successful in activating THP-1 to engulf opRBCs | – | further decreased | activity profiles in phagocytosis assays that are similar to the monovalent nS-F | – | –
4 | CVELTREGC (HELM PEPTIDE1{C.V.E.L.T.R.E.G.C.[am]}$PEPTIDE1,PEPTIDE1,1:R3-9:R3$$$V2.0; N-terminus assumed; SMILES CC(C)C[C@@H]1NC(=O)[C@H](CCC(=O)O)NC(=O)[C@H](C(C)C)NC(=O)[C@@H](N)CSSC[C@@H](C(N)=O)NC(=O)CNC(=O)[C@H](CCC(=O)O)NC(=O)[C@H](CCCNC(=N)N)NC(=O)[C@H]([C@@H](C)O)NC1=O) [nS-Cyc] | – | – | – | greater effect in perturbing the CD47-SIRPα interaction compared to linear nS-wt; also recorded: slightly higher levels than opsonized and anti-CD47 blocked RBCs; also recorded: Maximum levels of phagocytic macrophages | Maximum levels of phagocytic macrophages | fold more active than the linear counterpart ([3]; mouse macrophages, opsonized RBCs): roughly 20 fold; effect on phagocytosis of opsonized RBCs (words) ([3]; saturating / 50 μM peptide): slightly higher levels than opsonized and anti-CD47 blocked RBCs; residual adhesion of opsonized RBCs to macrophages (human THP-1 macrophages [5]): lowest amount of residual adhesion to macrophages
5 | CVTELFREGC (HELM PEPTIDE1{C.V.T.E.L.F.R.E.G.C.[am]}$PEPTIDE1,PEPTIDE1,1:R3-10:R3$$$V2.0; N-terminus assumed; SMILES CC(C)C[C@@H]1NC(=O)[C@H](CCC(=O)O)NC(=O)[C@H]([C@@H](C)O)NC(=O)[C@H](C(C)C)NC(=O)[C@@H](N)CSSC[C@@H](C(N)=O)NC(=O)CNC(=O)[C@H](CCC(=O)O)NC(=O)[C@H](CCCNC(=N)N)NC(=O)[C@H](Cc2ccccc2)NC1=O) [nS-F-Cyc, cyclic variant of nS-F] | – | – | – | Maximum levels of phagocytic macrophages | Maximum levels of phagocytic macrophages | increase of macrophage phagocytosis relative to nS-wt (human THP-1 macrophages [1]; saturating peptide): roughly 25%

From patent US20240158448A1, “MULTIVALENT NANO-'SELF' PEPTIDES AND USES THEREOF” (THE TRUSTEES OF THE UNIVERSITY OF PENNSYLVANIA, priority 2021, published 2024)
